Patent US20210147932A1, “FLUORESCENT PROBES FOR QUANTIFICATION OF DNA DAMAGE AND REPAIR” (The Board of Trustees of the Leland Stanford Junior …, priority 2019, published 2021)

Target: T1, NTH1 (Homo sapiens, UniProt P78549)
T1 construct: purchased Novus biologics
T1 sequence (P78549 23-304): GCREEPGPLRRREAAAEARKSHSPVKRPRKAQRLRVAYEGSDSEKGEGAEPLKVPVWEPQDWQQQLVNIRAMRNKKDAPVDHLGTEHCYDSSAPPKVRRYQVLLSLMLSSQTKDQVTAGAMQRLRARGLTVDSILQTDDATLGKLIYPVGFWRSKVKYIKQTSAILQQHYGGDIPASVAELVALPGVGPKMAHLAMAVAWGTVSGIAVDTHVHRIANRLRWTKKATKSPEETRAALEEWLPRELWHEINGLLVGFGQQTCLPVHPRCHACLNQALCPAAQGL
Assay: NTH1 coupled assay with 5-hydroxycytosine DNA hairpin
Assay type: biochemical
Settings: NTH1 500 nM, 5hC DNA substrate 60 μM, CCVJ1 20 μM
Method: FIG. 15, panels A-G provides quantitative coupled assays using Compound (1) (CCJV1). Shown are data from reaction of lesion containing substrates with UNG and SMUG1 (5 nM) (panel A), MPG (100 nM) (panel B), NTH1 (500 nM) (panel C), OGG1 (100 nM) in real-time (panel D) with lesion containing DNA (2 μM) and CCVJ1 (20 μM) (panels A, B and D) or lesion containing DNA (60 μM) and CCVJ1 (20 μM) […]. […] Delay time tss of 25 minutes indicated with dotted line.
FIG. 16 provides time course of NTH1 (500 nM) with 5-hydroxycytosine containing DNA (60 μM) and Compound (1) (CCVJ1) (20 μM). […] Following a 10-minute incubation period, additional substrate was then added (20 μM) which yielded an increase in fluorescence.
Based on the results of our neighboring base effect study, several glycosylase oligonucleotide substrates were purchased or prepared in which the identity of the base lesion X was varied to correspond to the known activities of different target glycosylases (FIG. 15, panel E). For these studies human enzymes SMUG1/UNG, OGG1, MPG and NTH1, were chosen which represent a diverse array of human glycosylases. […] Assays were carried out in a 60 μL volume in a 384 well format on a microplate reader using a fluorescein filter set. For each enzyme, it was possible to observe a robust fluorescence signal (FIG. 15, panels A-D). […]

`N#C/C(=C\c1cc2c3c(c1)CCCN3CCC2)C(=O)NCCON` [CCVJ1] was tested, and the “overall fold change of fluorescence with NTH1” value was 20 fold.
